Where two headings read alike, the source gives them in different places. One block for each compound: values may come before it.
Key:
[1] = In vitro penetration rate through human skin, Franz cells; assay type: in vitro ADME
Description: Penetration rates of HPCs through human skin were measured in vitro by Franz cells. A Franz cell has two chambers, a top sample chamber and a bottom receptor chamber.
Test compounds were diethylaminoethyl N-acetyl-3-(3,4-diacetyloxy-phenyl-L-alanine ester.HCl salt (A), diethylaminopropyl N-acetyl-D-3,5,3′,5′-tetraiodothyronine.HCl salt(B), 1-piperidineethyl 2-[4-(4-chlorobenzoyl)phenoxy]-2-methyl-propinate. HCl salt(C), 3-piperidinemethyl 5-(2,5-dimethylphenoxy)-2,2-dimethylpentanoate.HCl salt(D), diethylaminoethyl (S)-3-(benzoylaminomethyl)-5-methylhexanoate.HCl salt(E), N-acetyl-3-(3,4-diacetyloxy-phenyl-L-alanine(F) sodium salt, N-acetyl-D-3,5,3′,5′-tetraiodothyronine sodium salt(G), 2-[4-(4-chlorobenzoyl)phenoxy]-2-methyl-propinic acid sodium salt(H), 5-(2,5-dimethylphenoxy)-2,2-dimethylpentanoic acid sodium salt(I), and (S)-3-(benzoylaminomethyl)-5-methylhexanoic acid sodium salt(J).
10% solution of the test compound in water was used. The amount of a HPC or its parent drug penetrating a skin was determined by high-performance liquid chromatography method. The results were shown in FIG. 8 and apparent flux values of the HPCs and their corresponding parent drugs were summarized in Table 2.

[2] = tested on: lesions similar to psoriasis generated by Malassezia; experiment: Anti-psoriasis activity, Malassezia-induced lesions; assay type: in vivo, Chinese white rabbits; conditions: HPC 5% aq. applied to the lesion areas twice per day
Description: Heavy suspensions of Malassezia [Rosenberg, E. W., et al., Mycopathologia, 72, 147-154 (1980)] were applied to the shaved skin on the backs of Chinese white rabbits (n=4×6) twice (at […]) per day for 2 weeks to generate lesions similar to psoriasis. HPCs (5%, aq.) were applied to the same areas 3 hours (10 am and 6 pm) after the application of Malassezia (7 am and 3 pm). […] HCl, diethylaminoethyl 1,8-diethyl-1,3,4,9-tetrahydropyrano-[3,4-b]indole-1-acetate.HCl, diethylaminoethyl 2-amino-3-(4-bromo-benzoyl)benzeneacetate.HCl, diethylaminoethyl 3-chloro-4-(2-propenyloxy)benzeneacetate. HCl, diethylaminoethyl 1-(4-chlorobenzoyl-5-methoxy-2-methyl-1H-indole-3-acetoxyacetate. HCl, diethylaminoethyl 4-(4-chlorophenyl)-2-phenyl-5-thiazoleacetate.HCl, and diethylaminoethyl 3-(4-chlorophenyl)-1-phenyl-1H-pyrazole-4-acetate.HCl

[3] = tested on: Human colon cancer cells (LS174J); experiment: Human colon cancer xenograft in nude mice; conditions: about 50 μl of 5% topically every 12 hours
Text: Human colon cancer cells (LS174J, 2-3 mm^3 of tumor tissue was used in each mouse) were subcutaneously xenografted into nude mice (BALB).

[4] = tested on: GK rats (SLAC/GK, type 2 diabetes); experiment: Anti-diabetes (type II) activity of HPCs of NSAIAs in GK rats; assay type: in vivo; conditions: 30 mg/kg transdermally once per day, no fasting
Description: (§1) A HPC in the present disclosure lowered blood glucose levels in rat models (SLAC/GK, type 2 diabetes, n=7). 30 mg/kg of 8% diethylaminoethyl acetylsalicylate.HCl salt (P-1, in 25% ethanol); 4-acetamidophenyl salicylyldimethylaminobutyrate.HCl (P-6, in 25% ethanol), diethylaminoethyl 5-(2,4-difluorophenyl)acetylsalicylate.5-(2,4-difluorophenyl)acetylsalicylic acid salt (P-8, in 25% ethanol), diethylaminoethyl salicylsalicylate.HCl salt (P-9, in 25% ethanol), diethylaminoethyl salicylate.AcOH(P-10, in 25% ethanol), diethylaminoethyl 5-acetamido-acetylsalicylate.HCl(P-58, in 25% ethanol), diethylaminoethyl acetylsalicylsalicylate. HCl salt (P-59, in 25% ethanol), diethylaminoethyl acetylsalicylsalicylsalicylate. HCl salt (P-60, in 25% ethanol) were administered transdermally to the backs (6 cm^2, fur was shaved) of GK rats (SLAC/GK, 14-16 weeks old) and normal SD rats (SLAC/SD, 14-16 weeks old) once per day (at 8 am) for 6 weeks.
(§2) The blood glucose levels were measured once every 3 days at 4:30 pm (no fasting) from the third week to the sixth week as shown in Table 10a and 10b. […] Moreover, the blood glucose levels of the rats stayed at normal level (6-9 mmol/L, no fasting) after the treatment was stopped for 40 days.

[5] = tested on: normal SD rats (SLAC/SD); experiment: Blood glucose in normal SD rats treated with HPCs of NSAIAs; assay type: in vivo; conditions: 30 mg/kg transdermally once per day, no fasting
Description: as §1, §2

[6] = tested on: SLAC/DB/DB obese mice; experiment: Blood glucose and blood lipid levels in DB/DB mice; assay type: in vivo; conditions: 30 mg/kg transdermally once per day
Description: HPCs in the present disclosure lowered blood glucose levels and blood lipid levels in mice models (SLAC/DB/DB, obese mice, n=7). 30 mg/kg of 8% diethylaminoethyl acetylsalicylate.HCl salt (P-1, in 25% ethanol); 4-acetamidophenyl salicylyldimethylaminobutyrate.HCl (P-6, in 25% ethanol), diethylaminoethyl 5-(2,4-difluorophenyl)acetylsalicylate.5-(2,4-difluorophenyl)acetylsalicylic acid salt (P-8, in 25% ethanol), diethylaminoethyl salicylsalicylate.HCl salt (P-9, in 25% ethanol), diethylaminoethyl salicylate.AcOH(P-10, in 25% ethanol), diethylaminoethyl 5-acetamido-acetylsalicylate.HCl(P-58, in 25% ethanol), diethylaminoethyl acetylsalicylsalicylate.HCl salt (P-59, in 25% ethanol), diethylaminoethyl acetylsalicylsalicylsalicylate.HCl salt (P-60, in 25% ethanol) were administered transdermally to the backs (4 cm^2,fur was shaved) of DB/DB mice(SLAC/DB/DB, 10-12 weeks old) once per day (at 8 am) for 5 weeks. The blood glucose levels were measured once per week and blood lipid levels were measured once every other week.

[7] = tested on: SLAC:NOD-IDDM, type 1 diabetes; experiment: Anti-diabetes (type I) activity of HPCs of NSAIAs; assay type: in vivo, mice
Text: 10% aqueous solution of diethylaminoethyl acetylsalicylate.acetylsalicylic acid salt (P-1, […]); 4-acetamidophenyl salicylyldimethylaminobutyrate. HCl (P-6), diethylaminoethyl 5-(2,4-difluorophenyl)acetylsalicylate.5-(2,4-difluorophenyl)acetylsalicylic acid salt (P-8), diethylaminoethyl salicylsalicylate.AcOH(P-9), diethylaminoethyl 5-acetamido-acetylsalicylate. HCl (P-58), diethylaminoethyl 2-(ρ-isobutylphenyl) propionate.citric acid (P-59), diethylaminoethyl acetylsalicylsalicylate. acetylsalicylsalicylsalicylic acid salt (P-60) (equal to of 20 mg/kg of NSAIAs) were administered transdermally to the shaved back (about 1.5 cm^2) of mice twice per day (at 8 am and 5 pm) for 7 weeks.
The blood glucose levels were measured once every 3 days at 4:30 pm (no fasting) from the fourth week to the seventh week as shown in Table 11.

[8] = 10% solution in water, human skin 360-400 μm, Franz cells

apparent flux (in vitro penetration rate) [1]: 550 μg/cm^2/h
Structure (SMILES): CCN(CC)CCOC(=O)[C@H](Cc1ccc(OC(C)=O)c(OC(C)=O)c1)NC(C)=O.Cl [diethylaminoethyl N-acetyl-3-(3,4-diacetyloxy-phenyl-L-alanine ester.HCl salt]

Structure (SMILES): CC(C)C[C@H](CNC(=O)c1ccccc1)CC(=O)[O-].[Na+] [(S)-3-(benzoylaminomethyl)-5-methylhexanoic acid sodium salt, reference compound]
apparent flux (in vitro penetration rate) [1, 8]: 1 μg/cm^2/h

apparent flux (in vitro penetration rate) ([1]; human, 10 % solution in water): 1 μg/cm^2/h
Structure (SMILES): CC(=O)N[C@H](Cc1cc(I)c(Oc2cc(I)c(O)c(I)c2)c(I)c1)C(=O)[O-].[Na+] [N-acetyl-D-3,5,3′,5′-tetraiodothyronine sodium salt, reference compound]

apparent flux (in vitro penetration rate) ([1]; human, 10 % solution in water): 1 μg/cm^2/h
Structure (SMILES): Cc1ccc(C)c(OCCCC(C)(C)C(=O)[O-])c1.[Na+] [5-(2,5-dimethylphenoxy)-2,2-dimethylpentanoic acid sodium salt, reference compound]

Structure (SMILES): CCc1cccc2c3c([nH]c12)C(CC)(CC(=O)OCCN(CC)CC)OCC3.Cl (centres unmarked) [diethylaminoethyl 1,8-diethyl-1,3,4,9-tetrahydropyrano-[3,4-b]indole-1-acetate.HCl]
time until lesions healed after the application [2]: 10 days

apparent flux (in vitro penetration rate) [1]: 1 μg/cm^2/h
Structure (SMILES): CC(=O)N[C@@H](Cc1ccc(OC(C)=O)c(OC(C)=O)c1)C(=O)[O-].[Na+] [N-acetyl-3-(3,4-diacetyloxy-phenyl-L-alaninesodium salt, reference compound]

Structure (SMILES): CCN(CC)CCOC(=O)Cc1cccc(C(=O)c2ccc(Br)cc2)c1N.Cl [diethylaminoethyl 2-amino-3-(4-bromo-benzoyl)benzeneacetate.HCl]
time until lesions healed after the application [2]: 10 days

Structure (SMILES): CCN(CC)CCOC(=O)COC(=O)Cc1c(C)n(C(=O)c2ccc(Cl)cc2)c2ccc(OC)cc12.Cl [diethylaminoethyl 1-(4-chlorobenzoyl-5-methoxy-2-methyl-1H-indole-3-acetoxyacetate. HCl]
time until lesions healed after the application [2]: 10 days

Structure (SMILES): CCN(CC)CCOC(=O)Cc1ccc(C(=O)c2ccc(C)cc2)n1C.Cl [P-13, diethylaminoethyl 1-methyl-5-(4-methylbenzoyl)-1H-pyrrole-2-acetate.HCl]
Weight of mice at day 30 [3]: 23 ± 3
tumor Size at day 30 [3]: 690 ± 250 mm^3
time until lesions healed after the application [2]: 10 days

Structure (SMILES): C=CCOc1ccc(CC(=O)OCCN(CC)CC)cc1Cl.Cl [diethylaminoethyl 3-chloro-4-(2-propenyloxy)benzeneacetate. HCl]
time until lesions healed after the application [2]: 10 days

Structure (SMILES): CCN(CC)CCOC(=O)Cc1cn(-c2ccccc2)nc1-c1ccc(Cl)cc1.Cl [diethylaminoethyl 3-(4-chlorophenyl)-1-phenyl-1H-pyrazole-4-acetate.HCl]
time until lesions healed after the application [2]: 10 days

apparent flux (in vitro penetration rate) [1]: 590 μg/cm^2/h
Structure (SMILES): CC(C)(Oc1ccc(C(=O)c2ccc(Cl)cc2)cc1)C(=O)OCCN1CCCCC1.Cl [1-piperidineethyl 2-[4-(4-chlorobenzoyl)phenoxy]-2-methyl-propinate. HCl salt]

apparent flux (in vitro penetration rate) [1]: 1 μg/cm^2/h
Structure (SMILES): CC(C)(Oc1ccc(C(=O)c2ccc(Cl)cc2)cc1)C(=O)[O-].[Na+] [2-[4-(4-chlorobenzoyl)phenoxy]-2-methyl-propinic acid sodium salt, reference compound]

apparent flux (in vitro penetration rate) [1]: 400 μg/cm^2/h
Structure (SMILES): Cc1ccc(C)c(OCCCC(C)(C)C(=O)OCC2CCCNC2)c1.Cl (centres unmarked) [3-piperidinemethyl 5-(2,5-dimethylphenoxy)-2,2-dimethylpentanoate.HCl salt]

Structure (SMILES): CCN(CC)CCOC(=O)C[C@@H](CNC(=O)c1ccccc1)CC(C)C.Cl [diethylaminoethyl (S)-3-(benzoylaminomethyl)-5-methylhexanoate.HCl salt]
apparent flux (in vitro penetration rate) [1, 8]: 650 μg/cm^2/h

Structure (SMILES): CCN(CC)CCOC(=O)Cc1cc(C)c(C(=O)c2ccc(Cl)cc2)n1C.Cl [diethylaminoethyl 5-(4-Chlorobenzoyl)-1,4-dimethyl-1H-pyrrole-2-acetate. HCl]
time until lesions healed after the application [2]: 10 days

apparent flux (in vitro penetration rate) [1]: 480 μg/cm^2/h
Structure (SMILES): CCN(CC)CCCOC(=O)[C@@H](Cc1cc(I)c(Oc2cc(I)c(O)c(I)c2)c(I)c1)NC(C)=O.Cl [diethylaminopropyl N-acetyl-D-3,5,3′,5′-tetraiodothyronine.HCl salt]

Structure (SMILES): CCN(CC)CCOC(=O)Cc1sc(-c2ccccc2)nc1-c1ccc(Cl)cc1.Cl [diethylaminoethyl 4-(4-chlorophenyl)-2-phenyl-5-thiazoleacetate.HCl]
time until lesions healed after the application [2]: 10 days

Structure (SMILES): CC(=O)O.CCN(CC)CCOC(=O)c1ccccc1O [P-10, diethylaminoethyl salicylate.AcOH]
blood glucose, Average (Week 2-5) [4]: 9.1 ± 2.2 mmol/L
blood glucose, Day 1 [4]: 16.7 ± 3.2 mmol/L
blood glucose, Average (Week 2-5) [5]: 5.7 ± 1.3 mmol/L
blood glucose, Day 1 [5]: 5.8 ± 1.2 mmol/L
Cholesterol (total), Day 1 [6]: 6.8 ± 0.4 mmol/L
Cholesterol (total), Week 5 [6]: 4.7 ± 0.5 mmol/L
Triglycerides, Day 1 [6]: 4.8 ± 0.9 mmol/L
Triglycerides, Week 5 [6]: 2.3 ± 0.3 mmol/L
blood glucose, Day 1 [6]: 15.1 ± 3.7 mmol/L
blood glucose, Week 5 [6]: 9.2 ± 2.3 mmol/L
blood glucose, Baseline ([7]; equal to 20 mg/kg of NSAIAs transdermally twice per day for 7 weeks): 18.8 ± 3.4 mmol/L
blood glucose, Average ([7]; fourth week to seventh week, no fasting, equal to 20 mg/kg of NSAIAs transdermally twice per day): 8.6 ± 1.8 mmol/L
